Test [1] addresses T1, GLUT5 (Homo sapiens, UniProt P22732, S76I).
T1 construct: gene SLC2A5; GLUT5tr (truncated for the first seven amino acids at the N-terminus)
T1 sequence (P22732 8-501 S76I): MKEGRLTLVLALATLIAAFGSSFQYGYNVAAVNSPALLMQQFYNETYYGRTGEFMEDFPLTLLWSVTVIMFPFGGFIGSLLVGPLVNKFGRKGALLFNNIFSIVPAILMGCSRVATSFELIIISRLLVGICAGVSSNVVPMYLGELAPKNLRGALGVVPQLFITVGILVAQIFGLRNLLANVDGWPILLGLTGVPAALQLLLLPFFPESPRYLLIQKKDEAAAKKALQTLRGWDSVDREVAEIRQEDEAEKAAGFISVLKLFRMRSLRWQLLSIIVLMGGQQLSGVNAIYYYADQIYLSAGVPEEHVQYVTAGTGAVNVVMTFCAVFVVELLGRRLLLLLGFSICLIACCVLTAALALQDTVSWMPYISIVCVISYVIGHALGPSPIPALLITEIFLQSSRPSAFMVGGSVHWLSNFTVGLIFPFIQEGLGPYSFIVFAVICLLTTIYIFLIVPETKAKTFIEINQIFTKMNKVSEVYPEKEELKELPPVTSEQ
The test can be described thus: inhibition of […]-fructose uptake in hxt0 yeast cells expressing GLUT5. It counts as cell-based.

Test [2] concerns the target T2, GLUT5 (Homo sapiens, UniProt P22732, S72Y).
T2 construct: gene SLC2A5; GLUT5tr (truncated for the first seven amino acids at the N-terminus)
T2 sequence (P22732 8-501 S72Y): T1 sequence (P22732 8-501 S76I) with S65Y, I69S
The description is as above. It counts as cell-based.

Structures are written as SMILES. Where a chain is given by its changes, count along the chain named. Where two headings read alike, the source gives them in different places.

On to `O=C(O[C@@H]1Cc2c(O)cc(O)cc2O[C@@H]1c1ccc(O)c(O)c1)c1cc(O)c(O)c(O)c1` [ECG, (−)-epicatechin-gallate], for which the results for the IC50 on GLUT5 [1] (read-out: IC50 of ECG) and at GLUT5 [2] (read-out: IC50 of ECG) were 140 ± 11 µM and 180 ± 11 µM, respectively.

Consider `CS(=O)(=O)c1ccc(Nc2ccc3c(c2)OCO3)c([N+](=O)[O-])c1` [MSNBA, N-[4-(methylsulfonyl)-2-nitrophenyl]-1,3-benzodioxol-5-amine], for which the results for the IC50 on GLUT5 [1] (read-out: IC50 of MSNBA) and on GLUT5 [2] (read-out: IC50 of MSNBA) were 6.3 ± 0.7 µM and 26.6 ± 6.7 µM, respectively.

By IC50 is commonly meant the concentration that inhibits the measured activity by half.

(Values after PMC5524692, “Establishing a yeast-based screening system for discovery of human GLUT5 inhibitors and activators” (Scientific Reports, 2017).)
